Where two headings read alike, the source gives them in different places.
Columns and labels:
[1] = system: SARS-CoV-2 in HPAEpiC cells; assay: RT-qPCR virus replication assay in HPAEpiC cells; type: cell-based; settings: for EC90: Severe acute respiratory syndrome coronavirus 2
[2] = system: SARS-CoV-2–infected Vero E6 cells; assay: cell protection assay (CCK8); type: cell-based; settings: for EC50: Vero E6 cells, MOI 0.1, 3 dpi, CCK8
[3] = acute toxicity experiment in rats; type: in vivo; settings: i.v. 40 mg/kg, i.p. 250 mg/kg, or p.o. 500 mg/kg
SARS-CoV-2 = assay: hACE2 transgenic mouse model of SARS-CoV-2 infection; type: in vivo, hACE2 transgenic mice; settings: for viral RNA loads in the lung tissues: 2 × 10^6 TCID50, 50 mg/kg, 3 and 5 dpi; for viral loads in the lung tissues: 5 dpi; for lung histopathology / neutrophils and macrophages in the lungs vs control mice: 5 × 10^6 TCID50, 3 dpi; for expression levels of IFN-β and CXCL10 in the lungs: 5 × 10^6 TCID50, lung tissue homogenate; for lung viral loads and lung lesions: oral or intraperitoneal treatment, summary statement; for abnormal behaviors or body weight loss: pilot study, 2 × 10^6 TCID50, MI-09 50 mg/kg p.o. bid or i.p. qd, MI-30 50 mg/kg i.p. qd, 6-day period
[4] = repeated dose toxicity study in rats; type: in vivo; settings: i.v. 6 and 18 mg kg^–1 day^–1, i.p. 100 and 200 mg kg^–1 day^–1, or p.o. 100 and 200 mg/kg twice daily, 7 consecutive days
[5] = PK experiments in Sprague-Dawley rats; settings: rat
Source text: To identify which of the six compounds is suitable for in vivo antiviral studies, we conducted PK experiments in Sprague-Dawley rats.

[6] = Severe acute respiratory syndrome coronavirus 2, read-out: EC50, SARS-CoV-2 virus replication (RT-qPCR)
[7] = Severe acute respiratory syndrome coronavirus 2, Vero C1008
[8] = 2 × 10^6 TCID50, 50 mg/kg (MI-09 p.o. bid or i.p. qd; MI-30 i.p. qd), 1 dpi
[9] = 5 × 10^6 TCID50, 100 mg/kg i.p. or p.o., 1 dpi
[10] = 5 × 10^6 TCID50, 100 mg/kg i.p. or p.o., 3 dpi
[11] = 5 × 10^6 TCID50, 100 mg/kg i.p. or p.o.
[12] = Sprague-Dawley, in vivo, ip, 20 mg/kg
[13] = Sprague-Dawley, in vivo, iv, 10 mg/kg
[14] = Sprague-Dawley, in vivo, po, 20 mg/kg

Row | Compound | EC90 [1] [nM] | EC50 [1, 6] [nM] | mortality, acute toxicity [3] | EC90 [2, 7] [nM] | EC50 [2, 7] [nM] | mean viral RNA loads in the lung tissues vs control (SARS-CoV-2; [8]) | viral RNA loads in the lung tissues (SARS-CoV-2) | mean viral RNA loads in the lung tissues vs control (SARS-CoV-2; [9]) | mean viral RNA loads in the lung tissues vs control (SARS-CoV-2; [10]) | viral loads in the lung tissues (SARS-CoV-2; [11]) | lung histopathology (SARS-CoV-2) | neutrophils and macrophages in the lungs vs control mice (SARS-CoV-2) | expression levels of IFN-β and CXCL10 in the lungs (SARS-CoV-2; 3 dpi) | lung viral loads and lung lesions (SARS-CoV-2) | abnormal behaviors or body weight loss (SARS-CoV-2) | toxicity, repeated dose [4] | AUC [5, 12] [ng·h/mL] | AUC [5, 13] [ng·h/mL] | AUC [5, 14] [ng·h/mL] | bioavailability [5, 14] [%] | other results
1 | CC(C)C[C@H](NC(=O)OCc1ccccc1)C(=O)N[C@@H](CC1CCNC1=O)C(O)S(=O)(=O)O (some centres unmarked) [GC376, reference compound] | – | – | – | – | – | – | – | – | – | – | – | – | – | – | – | – | – | – | – | – | EC50 ([1]; HPAEpiC cells, MOI 0.01, 2 dpi, viral RNA copies in supernatant, read-out: EC50, SARS-CoV-2 virus replication (RT-qPCR)): 153 nM; EC50 [2]: 1460 nM
2 | CC1(C)[C@@H]2[C@@H](C(=O)N[C@H](C=O)C[C@@H]3CCNC3=O)N(C(=O)COc3ccc(OC(F)(F)F)cc3)C[C@@H]21 [MI-09] | 47.9 | 1.2 | no rats died | 3620 | 860 | significantly (P < 0.05, Student’s t test) lower | almost undetectable | slightly lower | significantly lower | undetectable | slight alveolar septal thickening and mild inflammatory cell infiltration | fewer | reduced | significantly reduced | no abnormal behaviors or body weight loss were observed | did not result in noticeable toxicity | 11600 | 7430 | 1660 | 11.2 | –
3 | O=C[C@H](C[C@@H]1CCNC1=O)NC(=O)[C@@H]1[C@H]2CCC[C@H]2CN1C(=O)COc1ccc(Cl)cc1Cl [MI-30] | 58.8 | 1.1 | no rats died | 2120 | 540 | significantly (P < 0.05, Student’s t test) lower | almost undetectable | slightly lower | significantly lower | undetectable | slight alveolar septal thickening and mild inflammatory cell infiltration | fewer | reduced | significantly reduced | no abnormal behaviors or body weight loss were observed | did not result in noticeable toxicity | 14900 | 9770 | 2840 | 14.6 | half-life [5, 12]: 3.88 h; clearance rate (CL) ([5]; i.p. administration): 17.10 ml min^–1 kg^–1

— article PMC8099175, “SARS-CoV-2 M^pro inhibitors with antiviral activity in a transgenic mouse model” (Science (New York, N.y.), 2021)
